Results taken from US8431593B2, “Heteroaryl amide derivatives” (H. Lundbeck A/S, priority 2006, dated 2013).

target: T1, P2X7 receptor (Homo sapiens, UniProt Q99572); assay: P2X7 calcium mobilization assay, high throughput, antagonist activity (Example 4A); type: cell-based; settings: not given
T1 construct: host or cells: SH-SY5Y
T1 sequence (Q99572 1-595): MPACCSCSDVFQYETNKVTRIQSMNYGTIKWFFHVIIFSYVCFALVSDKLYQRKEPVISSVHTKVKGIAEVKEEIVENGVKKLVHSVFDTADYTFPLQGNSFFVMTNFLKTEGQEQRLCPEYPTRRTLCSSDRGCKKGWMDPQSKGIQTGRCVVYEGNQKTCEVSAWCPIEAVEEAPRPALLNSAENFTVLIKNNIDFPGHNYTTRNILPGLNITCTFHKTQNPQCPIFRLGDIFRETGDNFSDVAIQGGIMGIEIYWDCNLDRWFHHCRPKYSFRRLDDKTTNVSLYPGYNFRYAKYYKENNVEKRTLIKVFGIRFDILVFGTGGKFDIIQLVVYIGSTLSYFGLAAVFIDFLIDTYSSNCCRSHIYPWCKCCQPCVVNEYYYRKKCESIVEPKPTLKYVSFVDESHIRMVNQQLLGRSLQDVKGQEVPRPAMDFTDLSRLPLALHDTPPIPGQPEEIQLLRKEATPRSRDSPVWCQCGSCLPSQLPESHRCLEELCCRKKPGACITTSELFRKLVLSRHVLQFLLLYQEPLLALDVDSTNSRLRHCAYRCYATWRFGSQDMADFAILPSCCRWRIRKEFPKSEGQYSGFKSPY
Outline: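 100,000 cells/well, plated day -1. Dye 1 h → rinse → compound 1 h, RT → FLIPR^TETRA Ca2+ mobilization. Max RFU minus mean negative control (no agonist); mean agonist-well max as positive control.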

SMILES | IC50 [nM]
CCCNC(=O)Cc1cn2c(C(=O)NCC34CC5CC(CC(C5)C3)C4)cccc2n1 [Compound 146, N-(adamantan-1-ylmethyl)-2-[2-oxo-2-(propylamino)ethyl]imi-dazo[1,2-a]pyridine-5-carboxamide] | < 2000
O=C(NCC12CC3CC(CC(C3)C1)C2)c1cccc2nc(CNCCO)cn12 [Compound 65, N-(adamantan-1-ylmethyl)-2-{[(2-hydroxy-ethyl)amino]methyl}imi-dazo[1,2-a]pyridine-5-carboxamide] | < 2000
CCOC(=O)Cc1cn2c(NC(=O)CC34CC5CC(CC(C5)C3)C4)cccc2n1 [Compound 145, ethyl {5-[(adamantan-1-ylacetyl)amino]imi-dazo[1,2-a]pyridin-2-yl}acetate] | < 2000

same assay, conditions: 50% decrease in the fluorescence response of cells exposed to 80 μM 2′(3′)-O-(4-benzoyl-benzoyl)adenosine 5′-triphosphate; Example 4A; read-out: IC50

SMILES | IC50 [nM]
CC(C)(CO)c1cn2c(C(=O)NCC34CC5CC(CC(C5)C3)C4)cccc2n1 [Compound 539, N-(adamantan-1-ylmethyl)-2-(2-hydroxy-1,1-dimethylethyl)imidazo [1,2-a]pyridine-5-carboxamide] | < 2000
CC(C)C[C@@H](NC(=O)c1cn2c(C(=O)NC[C@@H]3CC[C@H]4C[C@@H]3C4(C)C)cccc2n1)C(N)=O [Compound 514, 2-N-[(1R)-1-carbamoyl-3-methylbutyl]-5-N-{[(1S,2R,5S)-6,6-dimethylbicyclo[3.1.1]hept-2-yl]methyl} imidazo[1,2-a]pyridine-2,5-dicarboxamide] | < 2000
CC(C(=O)O)c1cn2c(C(=O)NCC34CC5CC(CC(C5)C3)C4)cccc2n1 (stereo not shown) [Compound 547, 2-{5-[(adamantan-1-ylmethyl)carbamoyl]imidazo[1,2-a]pyridin-2-yl} propanoic acid] | < 2000
CN(CCC(C)(C)O)C(=O)c1cn2c(NC(=O)CC34CC5CC(CC(C5)C3)C4)cccc2n1 [Compound 431, 5-[(adamantan-1-ylacetyl)amino]-N-(3-hydroxy-3-methylbutyl)-N-methylimidazo[1,2-a]pyridine-2-carboxamide] | < 2000
COCCN(C(=O)Cc1cn2c(C(=O)NC[C@@H]3CC[C@@H]4C[C@H]3C4(C)C)cccc2n1)C1CCNCC1 [Compound 567, N-{[(1R,2R,5R)-6,6-dimethylbicyclo[3.1.1]hept-2-yl]methyl}-2-{2-[(2-methoxyethyl) (piperidin-4-yl)amino]-2-oxoethyl} imidazo[1,2-a]pyridine-5-carboxamide] | < 2000

same assay, conditions: 50% decrease in the fluorescence response of cells exposed to 80 μM of 2′(3′)-O-(4-benzoyl-benzoyl)adenosine 5′-triphosphate; Example 4A; read-out: IC50

SMILES | IC50 [nM]
CC(C)N(C(=O)c1cn2c(C(=O)NCC34CC5CC(CC(C5)C3)C4)cccc2n1)C1CCN(C)CC1 [Compound 680, 5-N-(adamantan-1-ylmethyl)-2-N-isopropyl-2-N-(1-methylpiperidin-4-yl)imidazo[1,2-a]pyridine-2,5-dicarboxamide] | < 2000
CCc1ccc(CN(C)C(=O)c2cn3c(C(=O)NCC45CC6CC(CC(C6)C4)C5)cccc3n2)nc1 [Compound 713, 5-N-(adamantan-1-ylmethyl)-2-N-[(5-ethylpyridin-2-yl)methyl]-2-N-methylimidazo[1,2-a]pyridine-2,5-dicarboxamide] | < 2000
CN(C)C1CCCN(C(=O)Cc2cn3c(C(=O)NC[C@H]4CCC5CC4C5(C)C)cccc3n2)C1 (stereo partly drawn) [Compound 790, 2-{2-[3-(dimethylamino)piperidin-1-yl]-2-oxoethyl}-N-{[(2S)-6,6-dimethylbicyclo [3.1.1]hept-2-yl]methyl}imidazo [1,2-a]pyridine-5-carboxamide] | < 2000
CCN(CC)CCN(C)C(=O)c1cn2c(C(=O)NCC34CC5CC(CC(C5)C3)C4)cccc2n1 [Compound 675, 5-N-(adamantan-1-ylmethyl)-2-N-[2-(diethylamino)ethyl]-2-N-methylimidazo[1,2-a]pyridine-2,5-dicarboxamide] | < 2000
N[C@@H]1CCN(C(=O)c2cn3c(NC(=O)CC45CC6CC(CC(C6)C4)C5)cccc3n2)C1 [Compound 725, 2-adamantan-1-yl-N-(2-{[(3R)-3-aminopyrrolidin-1-yl]carbonyl}imidazo[1,2-a]pyridin-5-yl)acetamide] | < 2000
CN(CC1CCCCN1C)C(=O)c1cn2c(C(=O)NCC34CC5CC(CC(C5)C3)C4)cccc2n1 (stereo not shown) [Compound 707, 5-N-(adamantan-1-ylmethyl)-2-N-methyl-2-N-[(1-methylpiperidin-2-yl)methyl]imidazo[1,2-a]pyridine-2,5-dicarboxamide] | < 2000

same assay, conditions: 50% decrease in the fluorescence response of cells exposed to 80 μM of 2′(3′)-O-(4-benzoyl-benzoyl)adenosine 5′-triphosphate; determined as in Example 4A; read-out: IC50

SMILES | IC50 [nM]
CC(O)CNC(=O)Cc1cn2c(C(=O)NCC3(c4ccc(C(F)(F)F)cc4)CCCCC3)cccc2n1 (stereo not shown) [Compound 864, 2-{2-[(2-hydroxypropyl)amino]-2-oxoethyl}-N-({1-[4-(trifluoromethyl)phenyl]cyclohexyl}methyl) imidazo[1,2-a] pyridine-5-carboxamide] | < 2000
O=C(NCC12CC3CC(CC(C3)C1)C2)c1cccc2nc(C(CC3CC3)C(=O)O)cn12 (stereo not shown) [Compound 1002, 2-{5-[(adamantan-1-ylmethyl)carbamoyl]imidazo[1,2-a]pyridin-2-yl}-3-cyclopropylpropanoic acid] | < 2000
CCOC(=O)C(Cc1cccc(OC)c1)c1cn2c(C(=O)NCC34CC5CC(CC(C5)C3)C4)cccc2n1 (stereo not shown) [Compound 842, ethyl 2-{5-[(adamantan-1-ylmethyl)carbamoyl]imidazo[1,2-a]pyridin-2-yl}-3-(3-methoxyphenyl) propanoate] | < 2000
O=C(NCC12CC3CC(CC(C3)C1)C2)c1cccc2nc(C(Cc3cccc(Cl)c3)C(=O)O)cn12 (stereo not shown) [Compound 848, 2-{5-[(adamantan-1-ylmethyl)carbamoyl]imidazo[1,2-a]pyridin-2-yl}-3-(3-chlorophenyl) propanoic acid] | < 2000

same assay, conditions: P2X7 calcium mobilization, Example 4A; 50% decrease in the fluorescence response of cells exposed to 80 μM of (2′(3′)-O-(4-benzoyl-benzoyl)adenosine 5′-triphosephate); read-out: IC50

SMILES | IC50 [nM]
COc1ccc(C2(CNC(=O)c3cccc4nc(C(F)(F)F)cn34)CCCCC2)cc1 [Compound 1026, N-{[1-(4-methoxyphenyl)cyclohexyl]methyl}-2-(trifluoromethyl) imidazo [1,2-a]pyridine-5-carboxamide] | < 2000
CC(=O)OC(C)OC(=O)N[C@@H]1CCCN(C(=O)Cc2cn3c(C(=O)NCC45CC6CC(CC(C6)C4)C5)cccc3n2)C1 (stereo partly drawn) [Compound 1060, 1-({[(3R)-1-({5-[(adamantan-1-ylmethyl)carbamoyl]imidazo[1,2-a]pyridin-2-yl}acetyl)piperidin-3-yl]carbamoyl}oxy)ethyl acetate] | < 2000
CC(C)CC(CNC(=O)c1cccc2nc(CN3CCC3)cn12)c1ccc(Cl)cc1 (stereo not shown) [Compound 1034, 2-(azetidin-1-ylmethyl)-N-[2-(4-chlorophenyl)-4-methylpentyl] imidazo[1,2-a] pyridine-5-carboxamide] | < 2000
CCN(Cc1cn2c(C(=O)NCC34CC5CC(CC(C5)C3)C4)cccc2n1)C(=O)OC(C)OC(C)=O (stereo not shown) [Compound 1059, 1-{[({5-[(adamantan-1-ylmethyl)carbamoyl]imidazo [1,2-a]pyridin-2-yl}methyl)(ethyl)carbamoyl]oxy} ethyl acetate] | < 2000

same assay, conditions: SH-SY5Y cells; 50% decrease in fluorescence response to 80 μM BzATP; read-out: IC50

SMILES | IC50 [nM]
O=C(NCC12CC3CC(CC(C3)C1)C2)c1cccc2nc(C(=O)N3CCC(O)CC3)cn12 [Compound 106, N-(adamantan-1-ylmethyl)-2-[(4-hydroxypiperidin-1-yl)carbonyl]imidazo[1,2-a]pyridine-5-carboxamide] | < 2000
CCOC(=O)c1nc2cccc(C(=O)NCC34CC5CC(CC(C5)C3)C4)n2c1Cl [Compound 15, ethyl 5-[(adamantan-1-ylmethyl)carbamoyl]-3-chloroimidazo[1,2-a]pyridine-2-carboxylate] | < 2000
CCN1CCN(C(=O)Cc2cn3c(C(=O)NCC45CC6CC(CC(C6)C4)C5)cccc3n2)CC1 [Compound 169, N-(adamantan-1-ylmethyl)-2-[2-(4-ethylpiperazin-1-yl)-2-oxoethyl]imidazo[1,2-a]pyridine-5-carboxamide] | < 2000
CN(C(=O)Cc1cn2c(C(=O)NCC34CC5CC(CC(C5)C3)C4)cccc2n1)C1CCOC1 (stereo not shown) [Compound 37, N-(adamantan-1-ylmethyl)-2-{2-[methyl(tetrahydrofuran-3-yl)amino]-2-oxoethyl}imidazo[1,2-a]pyridine-5-carboxamide] | < 2000
COCC1CCCN(C(=O)Cc2cn3c(C(=O)NCC45CC6CC(CC(C6)C4)C5)cccc3n2)C1 (stereo not shown) [Compound 176, N-(adamantan-1-ylmethyl)-2-{2-[3-(methoxymethyl)piperidin-1-yl]-2-oxoethyl}imidazo[1,2-a]pyridine-5-carboxamide] | < 2000

same assay, conditions: fluorescence response of cells exposed to 80 μM 2′(3′)-O-(4-benzoyl-benzoyl)adenosine 5′-triphosphate; Example 4A; read-out: IC50

SMILES | IC50 [nM]
CC1CCN(C(=O)c2cn3c(NC(=O)CC45CC6CC(CC(C6)C4)C5)cccc3n2)CC1 [Compound 363, 2-adamantan-1-yl-N-{2-[(4-methylpiperidin-1-yl)carbonyl]imidazo[1,2-a]pyridin-5-yl}acetamide] | < 2000
